Measurements taken from paper PMC6704710, “Preclinical evaluation of 3D185, a novel potent inhibitor of FGFR1/2/3 and CSF-1R, in FGFR-dependent and macrophage-dominant cancer models” (Journal of Experimental & Clinical Cancer Research : CR, 2019).

Experiments:
NEK11(h) = target: T1, NEK11(h) (Homo sapiens, UniProt Q8NG66); test: Eurofins kinase panel; assay type: biochemical; conditions: read-out: Inhibition rate (%)
T1 construct: purchased Eurofins (KinaseProfiler)
T1 sequence (Q8NG66 1-645): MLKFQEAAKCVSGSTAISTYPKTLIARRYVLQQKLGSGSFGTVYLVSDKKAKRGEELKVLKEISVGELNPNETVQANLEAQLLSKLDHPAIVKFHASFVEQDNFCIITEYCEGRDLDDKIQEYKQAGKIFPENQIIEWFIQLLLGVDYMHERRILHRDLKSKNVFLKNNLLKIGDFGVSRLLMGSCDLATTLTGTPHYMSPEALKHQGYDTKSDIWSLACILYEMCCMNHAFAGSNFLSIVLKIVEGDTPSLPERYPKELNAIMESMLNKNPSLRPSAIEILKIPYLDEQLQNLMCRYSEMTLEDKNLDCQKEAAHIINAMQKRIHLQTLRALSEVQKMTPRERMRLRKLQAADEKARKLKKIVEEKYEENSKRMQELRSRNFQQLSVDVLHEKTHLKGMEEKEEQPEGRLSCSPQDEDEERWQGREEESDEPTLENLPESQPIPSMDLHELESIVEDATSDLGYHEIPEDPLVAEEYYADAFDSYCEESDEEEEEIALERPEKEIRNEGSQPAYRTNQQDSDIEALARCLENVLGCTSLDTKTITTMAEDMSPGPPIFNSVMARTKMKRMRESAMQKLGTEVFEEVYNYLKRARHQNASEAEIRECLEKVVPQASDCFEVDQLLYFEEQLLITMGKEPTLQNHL

SAPK2a(T106M)(h) = target: T2, SAPK2a(T106M)(h) (Homo sapiens, UniProt Q16539, T106M); test: Eurofins kinase panel; assay type: biochemical; conditions: read-out: Inhibition rate (%)
T2 construct: purchased Eurofins (KinaseProfiler)
T2 sequence (Q16539 whole entry T106M): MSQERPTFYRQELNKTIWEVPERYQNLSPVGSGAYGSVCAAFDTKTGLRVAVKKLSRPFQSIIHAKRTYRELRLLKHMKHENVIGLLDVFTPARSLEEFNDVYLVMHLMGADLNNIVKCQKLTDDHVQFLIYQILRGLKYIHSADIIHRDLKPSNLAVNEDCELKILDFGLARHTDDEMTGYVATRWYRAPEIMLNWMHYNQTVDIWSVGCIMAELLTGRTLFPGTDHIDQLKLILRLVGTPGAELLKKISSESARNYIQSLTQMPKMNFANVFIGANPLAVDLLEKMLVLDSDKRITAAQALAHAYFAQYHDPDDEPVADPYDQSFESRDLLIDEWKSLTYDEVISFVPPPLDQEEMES

PDHK4(h) = target: T3, PDHK4(h) (Homo sapiens, UniProt Q16654); test: Eurofins kinase panel; assay type: biochemical; conditions: read-out: Inhibition rate (%)
T3 construct: purchased Eurofins (KinaseProfiler)
T3 sequence (Q16654 whole entry): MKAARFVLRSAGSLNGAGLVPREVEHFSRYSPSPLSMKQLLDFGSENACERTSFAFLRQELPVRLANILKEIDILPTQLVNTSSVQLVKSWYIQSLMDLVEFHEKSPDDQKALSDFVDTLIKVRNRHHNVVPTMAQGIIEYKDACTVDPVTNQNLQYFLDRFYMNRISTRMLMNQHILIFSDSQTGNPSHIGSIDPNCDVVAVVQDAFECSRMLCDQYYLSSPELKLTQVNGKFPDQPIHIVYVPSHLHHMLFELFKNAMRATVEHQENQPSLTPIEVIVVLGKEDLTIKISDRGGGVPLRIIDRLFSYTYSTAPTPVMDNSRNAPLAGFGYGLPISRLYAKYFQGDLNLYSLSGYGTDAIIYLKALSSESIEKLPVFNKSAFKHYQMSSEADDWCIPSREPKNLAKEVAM

JNK1α1(h) = target: T4, JNK1α1(h) (Homo sapiens, UniProt P45983); test: Eurofins kinase panel; assay type: biochemical; conditions: read-out: Inhibition rate (%)
T4 construct: purchased Eurofins (KinaseProfiler)
T4 sequence (P45983 1-384 isoform P45983-2): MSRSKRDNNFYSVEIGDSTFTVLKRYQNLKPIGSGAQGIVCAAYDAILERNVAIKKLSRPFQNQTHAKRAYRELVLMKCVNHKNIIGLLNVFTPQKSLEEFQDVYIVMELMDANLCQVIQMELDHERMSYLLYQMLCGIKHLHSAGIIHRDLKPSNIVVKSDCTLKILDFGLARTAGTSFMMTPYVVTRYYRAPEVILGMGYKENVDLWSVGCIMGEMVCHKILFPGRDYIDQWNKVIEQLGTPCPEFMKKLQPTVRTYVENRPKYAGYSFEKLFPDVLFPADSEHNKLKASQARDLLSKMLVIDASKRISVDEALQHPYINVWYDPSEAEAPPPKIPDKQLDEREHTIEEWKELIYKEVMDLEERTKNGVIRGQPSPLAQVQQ

M-NFS-60 = test: Cell proliferation assay; assay type: cell-based, mouse; conditions: Mus musculus; 72 h, mean ± SD
Description: The cancer cell lines indicated in Figure 3 were seeded in 96-well plates at a low density in growth medium. The next day, appropriate controls or the designated concentrations of the compounds were added to each well, and the cells were incubated for 72 h. HUVECs (passage 3) were seeded in 96-well plates in growth medium overnight and transferred to serum-free medium for 24 h. The following day, appropriate controls or the designated concentrations of the compounds were added to each well, and 100 ng/mL growth factor (bFGF or VEGF) was added to the indicated wells. The cells were incubated for 48 h. Finally, cell proliferation was determined using a sulforhodamine B (SRB) assay or a cell counting kit-8 (CCK-8) assay. […] IC50 values for proliferation curves were calculated using a 4-parameter logistic nonlinear regression model with SoftMax Pro Software (Molecular Devices, San Jose, USA).

Aurora-A(h) = target: T5, Aurora-A(h) (Homo sapiens, UniProt O14965); test: Eurofins kinase panel; assay type: biochemical; conditions: read-out: Inhibition rate (%)
T5 construct: purchased Eurofins (KinaseProfiler)
T5 sequence (O14965 1-403): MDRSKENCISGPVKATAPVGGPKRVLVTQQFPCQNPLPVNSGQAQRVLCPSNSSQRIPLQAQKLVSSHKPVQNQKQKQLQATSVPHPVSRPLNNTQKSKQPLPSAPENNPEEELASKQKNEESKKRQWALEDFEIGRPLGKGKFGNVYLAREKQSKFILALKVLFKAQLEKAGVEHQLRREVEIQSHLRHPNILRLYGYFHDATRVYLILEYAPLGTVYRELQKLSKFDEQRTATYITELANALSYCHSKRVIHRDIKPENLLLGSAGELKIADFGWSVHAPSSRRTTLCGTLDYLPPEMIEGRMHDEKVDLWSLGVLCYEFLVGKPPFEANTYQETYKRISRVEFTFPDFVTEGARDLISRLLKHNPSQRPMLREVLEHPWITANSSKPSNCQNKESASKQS

PBMC (CSF-2) = test: Macrophage survival (CCK-8); assay type: cell-based; conditions: Homo sapiens, 168 h, 7 days
Description: Murine bone marrow-derived macrophages (BMDMs) and PBMCs were used for cell viability studies. BMDMs were harvested by flushing the tibias and femurs of 6- to 8-week-old C57BL/6 mice and depleting red blood cells (RBCs) by RBC lysis (Biogems). For BMDM survival, the cells were cultured for 7 days in RPMI 1640 containing 10% fetal bovine serum (FBS), 100 U/mL penicillin, 100 μg/mL streptomycin and 100 ng/mL mouse CSF-1 (or CSF-2) with or without the tested compounds. PBMCs were obtained from HemaCare and cultured for 7 days in RPMI 1640 containing 10% fetal bovine serum (FBS), 100 U/mL penicillin, 100 μg/mL streptomycin and 100 ng/mL human CSF-1 (or CSF-2) with or without the tested compounds. Cell viability was measured using the CCK-8 assay. For IL-4/IL-13-induced macrophage survival analysis, viable cells were counted by trypan blue exclusion.

ICK(h) = target: T6, ICK(h) (Homo sapiens, UniProt Q9UPZ9); test: Eurofins kinase panel; assay type: biochemical; conditions: read-out: Inhibition rate (%)
T6 construct: purchased Eurofins (KinaseProfiler)
T6 sequence (Q9UPZ9 1-632): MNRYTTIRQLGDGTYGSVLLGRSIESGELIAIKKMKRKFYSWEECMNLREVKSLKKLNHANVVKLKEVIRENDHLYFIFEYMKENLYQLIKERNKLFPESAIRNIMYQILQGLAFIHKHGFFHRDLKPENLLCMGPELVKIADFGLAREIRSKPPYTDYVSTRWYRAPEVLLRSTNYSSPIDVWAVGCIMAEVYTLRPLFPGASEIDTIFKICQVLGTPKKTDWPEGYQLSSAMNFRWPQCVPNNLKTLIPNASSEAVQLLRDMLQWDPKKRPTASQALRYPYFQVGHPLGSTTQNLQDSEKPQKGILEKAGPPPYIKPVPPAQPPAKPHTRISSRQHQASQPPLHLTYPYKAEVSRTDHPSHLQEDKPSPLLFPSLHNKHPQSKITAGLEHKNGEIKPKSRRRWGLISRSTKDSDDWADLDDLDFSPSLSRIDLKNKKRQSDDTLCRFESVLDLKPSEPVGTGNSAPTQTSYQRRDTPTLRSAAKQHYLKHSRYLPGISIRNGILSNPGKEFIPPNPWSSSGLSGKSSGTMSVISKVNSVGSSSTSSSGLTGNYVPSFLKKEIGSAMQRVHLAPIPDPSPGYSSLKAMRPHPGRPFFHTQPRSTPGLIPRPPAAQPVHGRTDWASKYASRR

## COc1cc(OC)c(Cl)c(-c2ccc3c(NC(=O)c4ccc(N5CCNC(C)(C)C5)cc4)n[nH]c3n2)c1Cl [3D185]
NEK11(h); 10 nM
  inhibition at 0.01 µM: 5%
NEK11(h); 100 nM
  inhibition at 0.1 µM: 15%
NEK11(h); 1000 nM
  inhibition at 1 µM: 37%
SAPK2a(T106M)(h); 10 nM
  inhibition at 0.01 µM: 0%
SAPK2a(T106M)(h); 100 nM
  inhibition at 0.1 µM: 3%
SAPK2a(T106M)(h); 1000 nM
  inhibition at 1 µM: -3%
PDHK4(h); 10 nM
  inhibition at 0.01 µM: -2%
PDHK4(h); 100 nM
  inhibition at 0.1 µM: -2%
PDHK4(h); 1000 nM
  inhibition at 1 µM: 0%
JNK1α1(h); 10 nM
  inhibition at 0.01 µM: -3%
JNK1α1(h); 100 nM
  inhibition at 0.1 µM: -4%
JNK1α1(h); 1000 nM
  inhibition at 1 µM: 3%
M-NFS-60
  IC50: 16.7 ± 2.5 nM
Aurora-A(h); 10 nM
  inhibition at 0.01 µM: 4%
Aurora-A(h); 100 nM
  inhibition at 0.1 µM: 5%
Aurora-A(h); 1000 nM
  inhibition at 1 µM: 3%
PBMC (CSF-2)
  IC50: > 1000 nM
ICK(h); 10 nM
  inhibition at 0.01 µM: -10%
ICK(h); 100 nM
  inhibition at 0.1 µM: -5%
ICK(h); 1000 nM
  inhibition at 1 µM: 4%
